Measured values as given in a melting point compilation (Tetko et al.; mined from patent text by program, amines drawn as free bases though some values may be those of a salt).

Point of comparison: `CC(C)OC(=O)c1cc(-c2ccccc2)c(=O)n2c1-c1sccc1CC2`, melting point 166 °C. Against it:
- Cn1c(COc2ccc(CC3SC(=O)N(C(c4ccccc4)(c4ccccc4)c4ccccc4)C3=O)cc2)nc2cc(Cl)cnc21 (stereo not given) — lower, 82 to 84 °C
- Cc1ccc(Oc2ccccc2-n2cncn2)c(O)c1 — lower, 132 to 133 °C
- CC(=O)Nc1nc(C)c(S(=O)(=O)N(C)CCO)s1 — higher, 189 °C
- COC(=O)c1ccccc1S(=O)(=O)NC(=O)c1cnc2c(C)cc(C)nn12 — higher, 210 to 212 °C
- Clc1cc(OC[C@@H]2CCN2)cnc1Cl — lower, 59 to 60 °C
- C=CCn1c(S)nc2c(cnn2C)c1=O — higher, 171 to 174 °C
- CCOCCOc1ccc(C(=O)CN(Cc2ccccc2)Cc2ccccc2)cc1C(N)=O — lower, 128 to 131 °C
- Cc1ccc(NC(=O)N2CC(Oc3cccc(C(F)(F)F)c3)C2)cc1 — higher, 191 to 192 °C
- COc1ccccc1NS(=O)(=O)c1ccc([N+](=O)[O-])cc1 — lower, 96 to 98 °C
- COCCOCCn1cc(C(=O)NCc2ccc(Cl)cc2)c(=O)c2cc(CN(C)[C@H](C)[C@@H](O)c3ccccc3)ccc21 — lower, 106 to 109 °C
- O=[N+]([O-])c1cc(Br)ccc1Nc1cccc(-n2ccnc2)n1 — higher, 194 to 195 °C
- Cc1nn(-c2ccc(C(F)(F)F)cn2)cc1COc1cccc(CC(=O)O)c1 — lower, 142 to 143 °C
- O=CNc1ccc(OCCNCC(O)c2ccc(O)cc2)cc1 (stereo not given) — lower, 164 to 165 °C
- COc1ccc2nc(C)c(S(N)(=O)=O)n2n1 — higher, 251 °C
- O=C1NCCN=C1c1ccc(F)cc1 — lower, 118 to 120 °C
- CCCCc1nnc(SCc2ccc(OC)cc2)n1Cc1ccc(O)cc1 — lower, 130 to 131 °C
- CC(=O)NC(CCc1ccccc1)(COC(C)=O)COC(C)=O — lower, 116 to 117 °C
- CC1(COc2ccc([N+](=O)[O-])cc2)CC(O)c2cc(O)c(C(C)(C)C)cc2O1 (stereo not given) — higher, 194 to 201 °C
- CCCc1nn(-c2ccc(C(F)(F)F)cn2)cc1CCCOc1nn(C)cc1CCC(=O)O — lower, 103 to 104 °C
- COC(=O)N1CCC(c2ccccc2)C(O)C1 (stereo not given) — lower, 139 to 140 °C
- COc1cccc(C(=C/C=C/C(=O)O)c2cccc(OC)c2)c1 — higher, 179 to 180 °C
- O=C(O)c1ccc(Cl)cc1Nc1ccc(O)cc1 — lower, 164 to 165 °C
- Cn1nnc(COc2nn3c(-c4ccccc4)nnc3cc2-c2ccccc2)n1 — higher, 228 to 233 °C
- O=C(Nc1ccccc1C(F)(F)F)c1c(O)c2ccccc2oc1=O — lower, 157 to 159 °C
- CCCOc1ccc2[nH]c3c([N+](=O)[O-])ccc(Cl)c3c(=O)c2c1 — higher, 174 to 175 °C
- Cc1ccc(Nc2c([N+](=O)[O-])ccc(Cl)c2C(=O)O)cc1 — higher, 192 to 197 °C
- N=C(Nc1ccccc1)Nc1ncccc1OCc1c(F)cccc1F — lower, 136 to 137 °C
- CS(=O)(=O)c1ccc(-c2nc(C(F)(F)F)nc(Cl)c2-c2ccccc2)cc1 — lower, 156 to 159 °C
- CC(C)(C)OC(=O)NC(Cc1ccc(OC(=O)OCc2ccccc2)cc1)C(=O)O (stereo not given) — lower, 84 to 85 °C
- N#CC(C(=O)NCC(=O)O)C(=O)c1nn(-c2ccccc2)c2c1CSc1ccccc1-2 (stereo not given) — higher, 224 to 226 °C
- COc1c([N+](=O)[O-])cc(C(C)(C)C)cc1[N+](=O)[O-] — not separable, > 75 °C
- O=C(NCCc1ccccn1)c1cnc2cc3c(cc2c1Cl)OCO3 — lower, 145 to 146 °C
- O=C(Nc1ccc(-c2cccc(C(=O)O)c2)cc1)OCC1c2ccccc2-c2ccccc21 — higher, 226 to 228 °C
- CCOc1cc(-c2cc(C(F)(F)F)nc(Cl)n2)ccc1C(F)(F)F — lower, 89 °C
- O=C(NCc1ccc(Cl)cc1)c1cnc2c(OCCO)cc(CCCO)cc2c1O — higher, 250 to 252 °C
- O=C1c2ccccc2OC1Br (stereo not given) — lower, 60 °C
- CC(C)(C)c1ccc(C(=O)Nc2ccc(N)cc2)cc1 — lower, 111 to 113 °C
- CC(C)(C)NCC(O)COc1ccc2c(=O)cc(-c3ccc(OCc4ccccc4)c(OCc4ccccc4)c3)oc2c1 (stereo not given) — lower, 159 to 161 °C
- NC(=O)N1CCC(C2c3ncc(Br)cc3CCc3cc(Cl)cc(Cl)c32)CC1 (single isomer, unassigned; (+)) — lower, 102 to 103 °C
- O=C(c1ccc(F)cc1)c1ccc(C(=O)c2ccc(F)cc2)s1 — higher, 186 °C
- CC1(C)C2CC[C@]1(C)C(=O)C(C(=O)Nc1ccc(C(F)(F)F)cc1)C2=O (stereo not given in full) — lower, 78 to 81 °C
- CCOC(=O)COc1c(C(C)C)cc(C(O)(C(F)(F)F)C(F)(F)F)cc1C(C)C — lower, 91 to 93 °C
- CN1C(=O)C(NC(=O)Nc2ccc(Br)cc2)N=C(c2ccccc2)c2ccccc21 (stereo not given) — higher, 286 to 287 °C
- CCN1CC=C(c2ccc(Nc3ncc4ccc(-c5ccccc5N(C)S(C)(=O)=O)n4n3)c(OC)c2)CC1 — lower, 121 to 123 °C
- NC(=S)c1ncn2c1[C@@H]1CCN1C(=O)c1ccccc1-2 — higher, 227 to 230 °C
- CCC1(CC)O[C@@H](C(=O)O)[C@H](c2ccccc2)N1C(=O)OC(C)(C)C — higher, 185 °C
- CCCN1CCc2c(NC(C)=O)ccc(Br)c2C1 — lower, 144 to 145 °C
- NC(=O)c1ccc(-c2ccc(-c3ccc(C(F)(F)F)cc3)o2)cc1 — higher, 263 to 264 °C
- CCc1cc(Oc2ccc(S(C)(=O)=O)nc2)cc2cc(C3=NCC(CC(=O)NC)S3)[nH]c12 (stereo not given) — higher, 189 to 190 °C
- COC(=O)C=Cc1ccccc1C#N — lower, 92 to 93 °C
- N#Cc1cc(C=C2SC(=S)NC2=O)cc(O)c1O — higher, > 350 °C
- N#CCCNC(=O)c1n[nH]cc1NC(=O)c1ccc(Br)o1 — higher, 220 to 222 °C
- COC(=O)c1cc(Cl)c(Cl)cc1C#N — lower, 120 to 123 °C
- Cc1ccc(CN(C(=O)C2CC2)c2nc(C)no2)cc1 — lower, 49.5 to 50.5 °C
- Cc1cccc(-c2nc3ccc(Cl)nn3c2-c2ccnc(Nc3ccc(F)cc3C)c2)c1 — higher, 191 to 192 °C
- O=C1NC(C(=O)NCCCO[N+](=O)[O-])CS1 (stereo not given) — lower, 83 to 85 °C
- O=c1sc2cc(C(F)(F)F)cc([N+](=O)[O-])c2s1 — lower, 110 to 111 °C
- CC12CCC3C4CCC(=O)C=C4CC(CCCCCCCCCCCO[Si](C)(C)C(C)(C)C)C3C1CCC2=O (stereo not given) — lower, 65 °C
- Cc1nc2c3c(c(C(=O)NCCCO)cc2n1C)CCC1(Cc2ccccc2C1)N3 — higher, 237 to 238 °C
- CCc1c(Sc2cc(C)cc(C)c2)n(CC2=CCCC2CO)c(=O)[nH]c1=O (stereo not given) — lower, 59 to 60 °C
- CS(=O)(=O)c1ccc(-c2nc3cc(C4CCN(C(=O)OCc5ccccc5)CC4)ccc3o2)c(F)c1 — higher, 172 to 175 °C
- Cc1cc(C(=O)N(C)C)c(O)c([N+](=O)[O-])c1 — lower, 160 to 162 °C
- O=C(O)c1ccc(/C=C/c2ccc3c(=O)[nH]ncc3c2)cc1 — higher, > 345 °C
- CCOc1ccccc1OCC1(O)CCNC1 (stereo not given) — lower, 108 to 110 °C
- CC(C)Nc1cccnc1N1CCN(C(=O)c2ccc(C(=O)N[C@H](CO)CC3CCCCC3)cc2)CC1 — lower, 139 to 140 °C
- CC(C)(C)c1ccc(C(=O)Nc2ccccc2C(=O)NCCc2ncc[nH]2)cc1 — lower, 127 to 132 °C
- CCc1nn(CCOc2ccc(C=O)cc2)c(=O)c2ccccc12 — lower, 110 °C
- Nc1ncnn1C(=S)NCCCCCO — lower, 108 to 109 °C
- CCOc1ccc(C2=NNC(=O)[C@H]3CCCC[C@@H]23)cc1OCC (relative stereo) — lower, 156 to 157 °C
- CC(C)CC(OC(=O)c1ccncc1)C(=O)OCc1ccccc1 (racemic) — lower, 49 to 50 °C
- CC(=O)c1cc([N+](=O)[O-])ccc1NC(=O)CCl — lower, 162 °C
- CCCCCCCCOc1ccc(-c2ncc(OC(=O)[C@H]3CCCO3)cn2)cc1 — lower, 90 °C
- COC(=O)Nc1c(Br)cc(S(=O)(=O)N(C)C)cc1Br — higher, 177 to 178 °C
- FC(Cc1ccc(Cl)cc1)(Cn1cncn1)Cn1cncn1 — lower, 161 to 163 °C
- Cc1cc([C@H]2CN3C(=O)N(c4cc(Cl)nc(Cl)c4)C(=O)[C@]3(Cc3ccc(OC(F)(F)F)cc3)C2)c(C)[nH]1 — lower, 112 °C
- Cc1cc2c(cc1Cl)[nH]c1c(C(=O)O)cccc12 — higher, 310 °C
- N#Cc1c(NC(=O)CO)cccc1N1CCOCC1 — lower, 123 to 126 °C
- N#Cc1ccc(OCc2ccc(Cl)c(Cl)c2)cc1 — higher, 222 to 223 °C
- COC(=O)c1ccc(O)c(C=O)c1 — lower, 80 to 81 °C
- Cc1ccc(CNC(=O)c2nc(N3CCOCC3)n(C)c(=O)c2O)cc1C — not separable, 164 to 166 °C
- Cc1c2c(c(-c3ccc(F)cc3)c3c4c(ccc13)OCO4)CNC2=O — higher, 293 to 295 °C
- CCOc1ccc(CN2C(=O)SC(S(=O)(=O)c3ccc(C)cc3)C2=O)c(OCC)c1 (stereo not given) — lower, 121 to 123 °C
- O=C(O)C(Cc1ccccc1)Oc1ccc2cc(-c3nc(-c4ccccc4)sc3Br)ccc2c1Br (stereo not given) — higher, 221 to 223 °C
- CC(=O)Oc1ccc(C(C[N+](=O)[O-])SC(=S)N(C)C)cc1 (stereo not given) — lower, 116 to 118 °C
- CCOC(=O)Cc1cn(Cc2ccccc2)nc1O — lower, 156 to 157 °C
- Cc1cc(C)c(-c2cn(C)c3c(O)ncnc23)c(C)c1 — higher, 230 to 232 °C
- COc1cc(N)c2c(c1)OC(C)C2 (stereo not given) — lower, 59 to 61 °C
- C#CCOc1cc(N2C(=O)C3CCCCN3C2C(=O)OCC)c(F)cc1Cl (stereo not given) — lower, 72 to 75 °C
- O=C(c1ccc(Cl)cc1)C1CCN(S(=O)(=O)N2CCCC[C@@H]2C(=O)NO)CC1 — lower, 84.4 to 86.4 °C
- CCN(CC)CCNc1ccc(CN(C)S(=O)(=O)CC)c2sc3ccccc3c(=O)c12 — lower, 159 to 161 °C
- CCc1cc2c(s1)N(C(=O)N(C)C)CCN=C2c1ccccc1 — higher, 237 to 238 °C
- CN1C(=O)C(O)(c2ccccc2)c2cccc(Cl)c21 (stereo not given) — lower, 125 to 127 °C
- O=C(O)c1ccccc1SCCCCOc1ccc(C=Cc2ccncc2)cc1 — higher, 229 to 231 °C
- CCC(C)(O)c1cc(NC(=O)N2CCN(c3cc(OC)cc(OC)c3)CC2)c(OC)nc1C (stereo not given) — lower, 127 to 129 °C
- CC(C)(C)N1CCc2c(C(=O)O)nc3c(C#N)cnn3c21 — higher, 230 to 232 °C
- N#Cc1cnc2c(sc3ccc([N+](=O)[O-])cc32)c1O — higher, > 305 °C
- Cc1cc(Br)cc(C(=O)O)c1N — higher, 245 °C
- O=C(O)c1cccc(CN2CCC(c3cn(CC4CC4)c4ccccc34)CC2)c1 — higher, 207 °C
- Clc1ccc(C=NCCN=Cc2ccc(Cl)nc2)cn1 — higher, 170 °C
